# Data published in ChEMBL document CHEMBL1129083, “The synthesis of 5-azido-UTP and UDP-pyridoxal and their effect on the carbamoyl-phosphate synthetase (CPS II) in the mammalian multienzyme polypeptide CAD” (Bioorg Med Chem Lett, 1996).
# Legend:
# [1] = molecular target: Multifunctional protein CAD (Homo sapiens) (UniProt P27708); test: Compound was evaluated for its effect on the activity of mammalian Carbamoyl-phosphate synthetase in the multienzyme polypeptide CAD at a concentration of 4mM
# Chain of Multifunctional protein CAD (Homo sapiens) (P27708 whole entry): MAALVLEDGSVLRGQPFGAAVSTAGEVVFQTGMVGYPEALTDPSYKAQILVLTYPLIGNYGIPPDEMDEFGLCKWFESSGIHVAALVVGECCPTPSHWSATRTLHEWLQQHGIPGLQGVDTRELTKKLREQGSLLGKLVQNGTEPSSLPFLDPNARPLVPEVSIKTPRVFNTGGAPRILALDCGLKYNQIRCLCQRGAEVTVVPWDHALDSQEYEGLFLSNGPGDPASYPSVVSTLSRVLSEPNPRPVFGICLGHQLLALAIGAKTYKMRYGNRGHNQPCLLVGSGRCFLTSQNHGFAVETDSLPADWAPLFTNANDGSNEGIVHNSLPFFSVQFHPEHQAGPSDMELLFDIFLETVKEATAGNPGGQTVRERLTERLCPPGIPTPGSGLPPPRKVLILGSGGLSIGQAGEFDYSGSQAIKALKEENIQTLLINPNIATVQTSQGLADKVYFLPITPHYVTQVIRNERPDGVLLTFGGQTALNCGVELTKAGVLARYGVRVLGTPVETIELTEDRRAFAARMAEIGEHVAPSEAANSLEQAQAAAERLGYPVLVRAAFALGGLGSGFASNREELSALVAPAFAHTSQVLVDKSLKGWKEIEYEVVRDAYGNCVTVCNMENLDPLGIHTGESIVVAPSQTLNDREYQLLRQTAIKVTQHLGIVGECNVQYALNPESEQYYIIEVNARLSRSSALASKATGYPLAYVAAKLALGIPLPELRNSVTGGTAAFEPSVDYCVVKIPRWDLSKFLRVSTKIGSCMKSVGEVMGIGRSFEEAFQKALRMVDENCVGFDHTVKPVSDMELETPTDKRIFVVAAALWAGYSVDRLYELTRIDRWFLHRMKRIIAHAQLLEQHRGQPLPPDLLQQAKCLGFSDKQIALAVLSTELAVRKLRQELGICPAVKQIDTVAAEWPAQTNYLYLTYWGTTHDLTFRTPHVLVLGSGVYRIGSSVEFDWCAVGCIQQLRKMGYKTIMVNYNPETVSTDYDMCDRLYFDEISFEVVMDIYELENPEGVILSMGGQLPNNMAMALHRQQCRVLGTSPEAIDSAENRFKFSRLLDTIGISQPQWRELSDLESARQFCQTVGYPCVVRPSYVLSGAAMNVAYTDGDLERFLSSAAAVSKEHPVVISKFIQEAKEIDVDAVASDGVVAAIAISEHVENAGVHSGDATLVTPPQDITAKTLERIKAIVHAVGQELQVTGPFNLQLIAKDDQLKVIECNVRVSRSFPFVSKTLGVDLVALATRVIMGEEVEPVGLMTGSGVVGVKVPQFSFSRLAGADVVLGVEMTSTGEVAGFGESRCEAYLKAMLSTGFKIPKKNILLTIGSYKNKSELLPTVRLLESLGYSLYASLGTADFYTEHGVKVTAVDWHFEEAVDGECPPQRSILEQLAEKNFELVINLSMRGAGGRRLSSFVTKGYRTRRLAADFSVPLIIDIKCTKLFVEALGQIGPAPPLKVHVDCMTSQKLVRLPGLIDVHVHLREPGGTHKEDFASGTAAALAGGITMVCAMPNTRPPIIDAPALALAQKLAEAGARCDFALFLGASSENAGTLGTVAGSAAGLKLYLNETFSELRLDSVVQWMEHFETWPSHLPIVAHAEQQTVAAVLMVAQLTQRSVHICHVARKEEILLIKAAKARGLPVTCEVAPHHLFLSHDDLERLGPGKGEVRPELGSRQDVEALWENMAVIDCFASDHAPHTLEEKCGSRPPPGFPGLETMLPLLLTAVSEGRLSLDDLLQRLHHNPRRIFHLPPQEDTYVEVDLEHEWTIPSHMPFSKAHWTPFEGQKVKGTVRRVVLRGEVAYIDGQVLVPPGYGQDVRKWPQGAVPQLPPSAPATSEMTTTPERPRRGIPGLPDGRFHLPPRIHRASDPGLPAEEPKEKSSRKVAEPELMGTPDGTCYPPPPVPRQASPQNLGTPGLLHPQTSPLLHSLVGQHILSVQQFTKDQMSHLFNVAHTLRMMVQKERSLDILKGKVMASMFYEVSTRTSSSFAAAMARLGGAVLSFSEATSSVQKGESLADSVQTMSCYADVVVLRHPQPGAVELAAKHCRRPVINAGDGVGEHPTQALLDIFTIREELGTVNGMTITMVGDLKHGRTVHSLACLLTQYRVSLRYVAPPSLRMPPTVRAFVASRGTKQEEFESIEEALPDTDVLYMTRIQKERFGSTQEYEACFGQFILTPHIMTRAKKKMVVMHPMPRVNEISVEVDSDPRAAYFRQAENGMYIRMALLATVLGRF
# [2] = molecular target: Multifunctional protein CAD (Homo sapiens) (UniProt P27708); test: Compound was evaluated for its effect on the activity of mammalian Carbamoyl-phosphate synthetase in the multienzyme polypeptide CAD at a concentration of 0.4mM
# [3] = molecular target: Multifunctional protein CAD (Homo sapiens) (UniProt P27708); test: Compound was evaluated for its effect on the activity of mammalian Carbamoyl-phosphate synthetase in the multienzyme polypeptide CAD at a concentration of 1.6mM
# [4] = molecular target: Multifunctional protein CAD (Homo sapiens) (UniProt P27708); test: Compound was evaluated for its effect on the activity of mammalian Carbamoyl-phosphate synthetase in the multienzyme polypeptide CAD at a concentration of 1.2mM
# [5] = molecular target: Multifunctional protein CAD (Homo sapiens) (UniProt P27708); test: Compound was evaluated for its effect on the activity of mammalian Carbamoyl-phosphate synthetase in the multienzyme polypeptide CAD at a concentration of 1.2 mM
SMILES,Activity [2],Activity [4],further results
Nc1ncnc2c1ncn2[C@@H]1O[C@H](COP(=O)(O)OP(=O)(O)OP(=O)(O)O)[C@@H](O)[C@H]1O,–,–,Activity [1]: 100%
Cc1ncc(COP(=O)(O)OP(=O)(O)OC[C@H]2OC(n3ccc(=O)[nH]c3=O)[C@H](O)[C@@H]2O)c(C=O)c1O (stereo not given in full),120%,–,–
"O=P(O)(O)OC[C@H]1O[C@H](O)C(O)C1O (single isomer, unassigned)",–,–,Activity [3]: 100%
"O=c1ccn([C@@H]2O[C@H](CO)C(O)C2O)c(=O)[nH]1 (single isomer, unassigned)",–,–,Activity [3]: 100%
O=c1ccn([C@@H]2O[C@H](COP(=O)(O)OP(=O)(O)O)[C@@H](O)[C@H]2O)c(=O)[nH]1,–,54%,–
Cc1ncc(COP(=O)(O)O)c(C=O)c1O,170%,–,–
O=c1ccn([C@@H]2O[C@H](COP(=O)(O)OP(=O)(O)OP(=O)(O)O)[C@@H](O)[C@H]2O)c(=O)[nH]1,–,18%,–
O=P(O)(O)OC[C@H]1OC(OP(=O)(O)OP(=O)(O)O)[C@H](O)[C@@H]1O (stereo not given in full),320%,–,–
Cc1ncc(CO)c(C=O)c1O,–,73%,–
[N-]=[N+]=Nc1cn([C@@H]2O[C@H](COP(=O)(O)OP(=O)(O)OP(=O)(O)O)[C@@H](O)[C@H]2O)c(=O)[nH]c1=O,–,–,Activity [5]: 48%
